Values quoted from earlier work in US20050277634A1, “Liquid composition for veterinary medicine and process for the preparation and use thereof” (Boehringer Ingelheim Vetmedica GmbH, priority 2004, published 2005).

Conditions: injectable solution, subcutaneous administration

- Bioavailability: fully bioavailable
- Time to maximum plasma concentrations: after a few hours
SMILES: Cc1cnc(NC(=O)C2=C(O)c3ccccc3S(=O)(=O)N2C)s1 [meloxicam]
